Results as given in the NIST ThermoML archive (doi:10.1021/je700339f).

Assay: xn = mol fraction of the nth substance listed
Settings: 298.15 K, Liquid

ClCCCl [1,2-dichloroethane] + CN(C)C=O
mass density [kg/m3]
Settings | x2 = 0.0805 | x2 = 0.1978 | x2 = 0.302 | x2 = 0.397 | x2 = 0.4988 | x2 = 0.6023 | x2 = 0.7054 | x2 = 0.8005 | x2 = 0.9071
10000 kPa | – | – | – | 1134.5 | 1103.3 | 1071.8 | 1040.6 | – | 979.1
10500 kPa | 1230.8 | 1195.4 | 1163.6 | 1134.9 | 1103.7 | 1072.2 | 1040.9 | 1012.2 | 979.4
11000 kPa | 1231.2 | 1195.8 | 1164.1 | 1135.3 | 1104 | 1072.5 | 1041.2 | 1012.4 | 979.7
11400 kPa | – | – | 1164.4 | – | – | – | – | – | –
11500 kPa | 1231.7 | 1196.2 | – | 1135.7 | 1104.4 | 1072.9 | 1041.6 | 1012.8 | 980
11900 kPa | – | – | – | 1136 | – | – | 1041.9 | – | –
12000 kPa | 1232.2 | 1196.7 | 1164.9 | – | 1104.8 | 1073.2 | – | 1013.2 | 980.3
12400 kPa | – | – | 1165.2 | – | – | – | 1042.2 | – | 980.5
12500 kPa | 1232.6 | 1197.1 | – | 1136.5 | 1105.2 | 1073.5 | – | 1013.5 | –
12900 kPa | – | – | – | 1136.8 | – | – | – | – | –
13000 kPa | 1233.1 | 1197.4 | 1165.6 | – | 1105.6 | 1073.9 | 1042.6 | 1013.8 | 980.9
13400 kPa | 1233.4 | – | – | – | – | – | – | – | –
13500 kPa | – | 1197.9 | 1166 | 1137.3 | 1105.9 | 1074.2 | 1042.9 | 1014.1 | 981.2
13900 kPa | – | – | – | – | – | 1074.6 | – | – | –
14000 kPa | 1233.9 | 1198.3 | 1166.4 | 1137.6 | 1106.2 | – | 1043.2 | 1014.4 | 981.5
14500 kPa | 1234.3 | 1198.8 | 1166.8 | 1137.9 | 1106.6 | 1074.9 | 1043.5 | 1014.7 | 981.8
14900 kPa | – | – | – | 1138.2 | – | – | 1043.8 | – | –
15000 kPa | 1234.7 | 1199.1 | 1167.2 | – | 1107 | 1075.2 | – | 1015 | 982.1
15400 kPa | – | – | – | – | – | – | – | – | 982.3
15500 kPa | 1235.2 | 1199.6 | 1167.6 | 1138.7 | 1107.3 | 1075.6 | 1044.2 | 1015.3 | –
15900 kPa | – | 1199.9 | – | – | – | – | – | – | –
16000 kPa | 1235.6 | – | 1168 | 1139 | 1107.7 | 1075.9 | 1044.5 | 1015.7 | 982.6
16400 kPa | – | 1200.3 | – | – | – | – | – | 1015.9 | –
16500 kPa | 1236 | – | 1168.4 | 1139.4 | 1108 | 1076.2 | 1044.8 | – | 983
16900 kPa | – | – | – | 1139.7 | – | – | – | – | –
17000 kPa | 1236.4 | 1200.7 | 1168.7 | – | 1108.4 | 1076.6 | 1045.1 | 1016.3 | 983.2
17500 kPa | 1236.8 | 1201.1 | 1169.1 | 1140.1 | 1108.7 | 1076.9 | 1045.4 | 1016.6 | 983.5
17900 kPa | – | – | – | – | – | – | – | 1016.9 | –
18000 kPa | 1237.2 | 1201.5 | 1169.5 | 1140.5 | 1109 | 1077.3 | 1045.7 | – | 983.8
18400 kPa | – | – | – | – | – | 1077.6 | – | – | –
18500 kPa | 1237.7 | 1201.9 | 1169.9 | 1140.8 | 1109.4 | – | 1046.1 | 1017.2 | 984.1
19000 kPa | 1238.2 | 1202.4 | 1170.2 | 1141.2 | 1109.9 | 1078 | 1046.4 | 1017.5 | 984.4
19500 kPa | 1238.6 | 1202.7 | 1170.6 | 1141.6 | 1110.2 | 1078.3 | 1046.7 | 1017.8 | 984.7
20000 kPa | 1239 | 1203.1 | 1171.1 | 1142.1 | 1110.6 | 1078.6 | 1047.08 | 1018.2 | 985.1
